Results taken from US6239171A, “Tocotrienols and tocotrienol-like compounds and methods for their use” (Lipogenics, Inc., priority 1998, dated 2001).

Assays:
chickens [1] = assay: Serum cholesterol, apolipoproteins, triglycerides and glucose in chickens fed supplemented diets; format: in vivo, chicken; settings: control diet + 50 ppm, 4 weeks
Description: All assays conducted on chicken or swine serum were done following the protocols described in A. A. Qureshi et al., "Lowering Of Serum Cholesterol In Hypercholesterolemic Humans By Tocotrienols" (Palmvitee), Am. J. Clin. Nutr., 53, pp. 1021S-26S (1991). All enzymatic assays were done following the protocols described in A. A. Qureshi et al., "Effects of Cereals and Culture Filtrate of Trichoderma viride on Lipid Metabolism of Swine", Lipids, 17, pp. 924 (1982). Plasma insulin, glucagon and TNF levels were measured using radioinnumoassay kits from Ventrex Laboratories, Inc. (Portland, Me.), ICN Biomedicals, Inc. (Costa Mesa, Calif.) and Genzyme Corp. (Cambridge, Mass.), respectively. […]
Each group of 6 chickens (6-week old female while leghorn) was administered the chick mash diet described in Example 5, supplemented with one of three different amounts of waxes (sterols), 50 ppm of TRF (prepared as in Example 2) or 5% equivalent of the methanol insoluble fraction Louisiana rice bran oil. […] The birds were fasted for a period of 14 hours prior to sacrifice (at 0800 hours). […]

[2] = system: cholesterol 7α-hydroxylase; assay: Cholesterol 7α-hydroxylase activity in isolated chicken hepatocytes; format: cell-based
Description: (§1) This study measured the effects of three tocotrienols isolated from rice bran on cholesterol-related enzyme activity in hepatocytes isolated from livers of 8-week old female chickens. The chickens were fed the chick mash diet for 8 weeks. They were then fasted for 40 hours and finally refed for 48 hours before sacrifice. The hepatocytes were then prepared following standard methods.
(§2) Each compound was isolated from TRF using the following protocol: A bond Elute amine column was equilibrated with 2 ml hexane. 10 mg of TRF (dissolved in 0.5 ml hexane) was bound to the amine column. The column was washed with 1 ml of hexane, then with 1 ml of 3% isopropanol in hexane. P-21 and P-25 were eluted off the column with 5% isopropanol in hexane. Then using 10% isopropanol in hexane, the impurity P-20 was eluted. α-tocotrienol was also tested.

[3] = system: cholesterol 7α-hydroxylase; assay: Hepatic cholesterol 7α-hydroxylase activity in chickens fed supplemented diets; format: in vivo, chicken; settings: control diet + 50 ppm, 4 weeks
Description: (§3) This example measured the effects of the TRF and its components on the hepatic enzymatic activity of HMG-CoA reductase and cholesterol 7α-hydroxylase. […] The amount of feed consumed ranged from 11.19-11.60 g per chicken and the feeding period was 4 weeks. The birds were fasted for a period of 36 hours and refed for 48 hours prior to sacrifice (at 0800 hours).

HMG-CoA reductase [4] = target: T1, HMG-CoA reductase (Homo sapiens, UniProt P04035); assay: Hepatic HMG-CoA reductase activity in chickens fed supplemented diets; format: in vivo, chicken; settings: control diet + 50 ppm, 4 weeks
T1 construct: hepatocytes isolated from livers of 8-week old female chickens; endogenous in cells; host or cells: primary chicken hepatocytes
T1 sequence (P04035 1-888): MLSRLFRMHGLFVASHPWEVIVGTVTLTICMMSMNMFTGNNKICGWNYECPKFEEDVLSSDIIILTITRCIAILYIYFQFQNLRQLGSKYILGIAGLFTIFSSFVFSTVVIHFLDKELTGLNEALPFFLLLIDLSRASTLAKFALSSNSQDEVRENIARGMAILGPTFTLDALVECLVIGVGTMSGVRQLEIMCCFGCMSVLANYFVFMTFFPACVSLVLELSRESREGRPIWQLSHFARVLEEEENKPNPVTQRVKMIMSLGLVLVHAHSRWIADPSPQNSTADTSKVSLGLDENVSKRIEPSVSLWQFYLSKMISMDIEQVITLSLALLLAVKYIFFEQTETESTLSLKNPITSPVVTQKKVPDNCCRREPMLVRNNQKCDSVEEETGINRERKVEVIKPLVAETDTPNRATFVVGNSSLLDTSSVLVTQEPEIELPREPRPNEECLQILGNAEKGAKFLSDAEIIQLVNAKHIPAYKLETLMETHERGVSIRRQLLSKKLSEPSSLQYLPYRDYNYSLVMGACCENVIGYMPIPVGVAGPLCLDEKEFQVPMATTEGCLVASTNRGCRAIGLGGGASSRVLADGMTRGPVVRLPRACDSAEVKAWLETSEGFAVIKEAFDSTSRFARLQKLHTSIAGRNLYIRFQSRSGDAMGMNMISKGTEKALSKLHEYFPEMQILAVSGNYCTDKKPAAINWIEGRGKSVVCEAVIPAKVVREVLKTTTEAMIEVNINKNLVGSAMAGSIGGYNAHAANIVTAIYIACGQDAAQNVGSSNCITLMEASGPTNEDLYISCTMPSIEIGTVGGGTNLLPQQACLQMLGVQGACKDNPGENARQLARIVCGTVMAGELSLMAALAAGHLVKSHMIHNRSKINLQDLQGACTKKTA
Description: as §3

chickens [5] = assay: Plasma thromboxane B2 and platelet factor 4 in chickens fed supplemented diets; format: in vivo, chicken; settings: control diet + 50 ppm, 4 weeks
Description: We next measured the effects of TRF and its components on serum levels of apolipoprotein (a)1, apolipoprotein B, triglycerides and glucose and the plasma levels of thromboxane B2 and platelet factor 4.

Fatty Acid Synthase = target: T2, Fatty Acid Synthase (Gallus gallus, UniProt P12276); assay: Fatty acid synthase activity in isolated chicken hepatocytes; format: cell-based
T2 construct: hepatocytes isolated from livers of 8-week old female chickens; endogenous in cells; host or cells: primary chicken hepatocytes
T2 sequence (P12276 2-2512 limits assumed): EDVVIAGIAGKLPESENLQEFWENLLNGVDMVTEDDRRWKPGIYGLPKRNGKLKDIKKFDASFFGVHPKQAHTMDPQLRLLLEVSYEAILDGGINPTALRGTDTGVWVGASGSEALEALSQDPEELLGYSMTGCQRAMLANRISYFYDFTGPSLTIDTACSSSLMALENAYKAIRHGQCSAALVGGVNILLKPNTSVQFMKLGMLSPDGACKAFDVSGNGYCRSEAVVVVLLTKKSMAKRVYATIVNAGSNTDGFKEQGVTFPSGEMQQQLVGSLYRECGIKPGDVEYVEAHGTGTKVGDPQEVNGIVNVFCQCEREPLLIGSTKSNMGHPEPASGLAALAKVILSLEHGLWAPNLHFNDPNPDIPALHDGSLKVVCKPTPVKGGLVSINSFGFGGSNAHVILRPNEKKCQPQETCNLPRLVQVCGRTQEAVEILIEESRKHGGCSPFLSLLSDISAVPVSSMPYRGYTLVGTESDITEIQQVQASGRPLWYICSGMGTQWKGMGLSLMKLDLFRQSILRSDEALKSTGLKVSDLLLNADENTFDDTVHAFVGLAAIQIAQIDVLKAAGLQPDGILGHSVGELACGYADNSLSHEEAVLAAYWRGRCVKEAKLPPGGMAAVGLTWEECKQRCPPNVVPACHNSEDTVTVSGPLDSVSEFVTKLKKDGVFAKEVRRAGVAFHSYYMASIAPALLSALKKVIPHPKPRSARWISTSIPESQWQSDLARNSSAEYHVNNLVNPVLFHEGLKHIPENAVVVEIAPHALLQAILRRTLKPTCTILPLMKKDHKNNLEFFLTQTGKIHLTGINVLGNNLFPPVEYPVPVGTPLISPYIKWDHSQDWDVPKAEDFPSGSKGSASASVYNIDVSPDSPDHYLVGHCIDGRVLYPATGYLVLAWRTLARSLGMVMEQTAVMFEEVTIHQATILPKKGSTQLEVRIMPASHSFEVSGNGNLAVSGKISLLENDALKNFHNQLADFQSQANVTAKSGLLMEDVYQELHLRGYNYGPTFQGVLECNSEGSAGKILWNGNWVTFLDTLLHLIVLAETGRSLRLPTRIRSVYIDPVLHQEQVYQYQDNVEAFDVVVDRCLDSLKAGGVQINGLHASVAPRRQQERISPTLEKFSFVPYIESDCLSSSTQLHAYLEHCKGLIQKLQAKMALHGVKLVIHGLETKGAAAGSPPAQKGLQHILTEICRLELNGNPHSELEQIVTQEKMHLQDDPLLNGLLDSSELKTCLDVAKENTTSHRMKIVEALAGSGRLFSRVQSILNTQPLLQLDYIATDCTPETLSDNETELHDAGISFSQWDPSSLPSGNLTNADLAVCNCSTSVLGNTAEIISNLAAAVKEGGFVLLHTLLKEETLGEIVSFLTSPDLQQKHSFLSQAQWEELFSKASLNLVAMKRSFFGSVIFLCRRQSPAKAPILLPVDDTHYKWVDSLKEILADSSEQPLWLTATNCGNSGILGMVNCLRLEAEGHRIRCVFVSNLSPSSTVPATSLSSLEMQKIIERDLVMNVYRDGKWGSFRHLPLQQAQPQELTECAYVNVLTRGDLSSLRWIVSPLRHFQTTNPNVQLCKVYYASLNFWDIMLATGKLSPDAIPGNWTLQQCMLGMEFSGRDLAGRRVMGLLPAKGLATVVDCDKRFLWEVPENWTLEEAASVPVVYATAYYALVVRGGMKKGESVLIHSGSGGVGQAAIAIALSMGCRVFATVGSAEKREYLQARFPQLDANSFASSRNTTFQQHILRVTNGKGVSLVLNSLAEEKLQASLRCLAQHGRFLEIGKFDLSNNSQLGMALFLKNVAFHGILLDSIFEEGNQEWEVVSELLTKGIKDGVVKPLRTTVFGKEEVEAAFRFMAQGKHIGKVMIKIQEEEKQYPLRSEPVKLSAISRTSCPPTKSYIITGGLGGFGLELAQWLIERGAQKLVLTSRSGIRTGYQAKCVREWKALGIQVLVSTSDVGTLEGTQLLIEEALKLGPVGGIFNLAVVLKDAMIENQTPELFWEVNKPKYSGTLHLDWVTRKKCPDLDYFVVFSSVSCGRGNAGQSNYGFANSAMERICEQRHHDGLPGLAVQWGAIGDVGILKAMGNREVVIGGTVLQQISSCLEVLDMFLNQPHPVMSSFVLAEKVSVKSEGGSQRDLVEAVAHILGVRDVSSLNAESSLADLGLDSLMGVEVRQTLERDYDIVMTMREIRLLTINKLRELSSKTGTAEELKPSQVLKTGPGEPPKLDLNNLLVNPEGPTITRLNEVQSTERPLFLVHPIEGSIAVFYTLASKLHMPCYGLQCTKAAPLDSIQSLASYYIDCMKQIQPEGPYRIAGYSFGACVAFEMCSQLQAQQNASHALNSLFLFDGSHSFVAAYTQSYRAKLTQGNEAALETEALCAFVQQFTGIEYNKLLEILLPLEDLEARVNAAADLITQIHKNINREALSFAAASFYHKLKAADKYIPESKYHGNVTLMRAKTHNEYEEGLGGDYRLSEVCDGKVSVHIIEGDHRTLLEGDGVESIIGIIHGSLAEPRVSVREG
Description: as §1, §2

chickens [6] = assay: Antibody titers to sheep red blood cells in chickens; format: in vivo, chicken; settings: control diet + 50 ppm, 4 weeks, sheep red blood cells i.p.
Description: The model for this study was 6-week old female white leghorn chickens. Each group of 12 chickens was fed an unsupplemented chicken diet or a control diet supplemented with 50 ppm of a tocotrienol or 100 ppm of a commercially available hypercholesterolemic agent (Geraniol or Lovastatin). […] The chickens were fed over a period of 4 weeks, then the blood was drawn. The antibody response was determined by injecting the chickens i.p. with 0.5 ml of a 5% suspension of sheep red blood cells (RBCs) in PBS (v/v) which were previously washed three times. […] Relative IgG levels were determined by using 2-mercaptoethanol preincubation for 30 min. The relative IgM levels were calculated by subtracting the IgG antibody levels from total antibody levels. All antibody levels are expressed as the log base 2 of the highest titer that was needed to hemagglutinate an equal volume of 0.5% RBC suspension.

HMG-CoA reductase [7] = target: T1, HMG-CoA reductase; assay: HMG-CoA reductase activity in isolated chicken hepatocytes; format: cell-based
Description: as §1, §2
We next measured the effects of various tocotrienols and tocotrienol-like compounds isolated from rice bran on the activity of HMG-CoA reductase. 20.0 g of stabilized rice bran was extracted with 200.0 ml of methanol to remove various UV absorbing impurities and tocotrienols (6.7 mg total). This step was repeated four times. The remaining residue was dried under vacuum in a desiccator and then heated at 180° C. for 2 hours under 30 psi pressure. Then the dried residue was extracted again with 200.0 ml methanol (3.4 mg). […]

CC(C)=CCC/C(C)=C/CC/C(C)=C/CC[C@]1(C)CCc2c(C)c(O)c(C)c(C)c2O1 [α-T3, α-tocotrienol]
APO A1, percentage of control (chickens [1]): 99.43% | APO A1 in serum (chickens [1]): 139.6 mg/100 ml | APO B in serum (chickens [1]): 29.30 mg/100 ml | APO B, percentage of control (chickens [1]): 88.52% | DL-Cholesterol/Total Cholesterol (chickens [1]): 0.61 | DL-Cholesterol/Total Cholesterol, percentage of control (chickens [1]): 104.30% | Glucose in serum (chickens [1]): 216.90 mg/100 ml | Glucose, percentage of control (chickens [1]): 96.70% | HDL-Cholesterol in serum (chickens [1]): 80.47 ± 0.67 mg/dL | HDL-Cholesterol, percentage of control (chickens [1]): 96.19% | HDL-Cholesterol/LDL-Cholesterol (chickens [1]): 2.09 | HDL-Cholesterol/LDL-Cholesterol, percentage of control (chickens [1]): 110.40% | LDL-Cholesterol in serum (chickens [1]): 47.97 ± 0.56 mg/dL | LDL-Cholesterol, percentage of control (chickens [1]): 87.12% | Total Cholesterol in serum (chickens [1]): 131.71 ± 1.08 mg/dL | Total Cholesterol, percentage of control (chickens [1]): 92.25% | Triglycerides in serum (chickens [1]): 68.04 mg/100 ml | Triglycerides, percentage of control (chickens [1]): 91.91% | Cholesterol 7α-hydroxylase ([2]; 10.0 μg/mL): 2.12 pmol/min/mg | Cholesterol 7α-hydroxylase, percentage of 0.0 μg/mL ([2]; 10.0 μg/mL): 91.8% | Cholesterol 7α-hydroxylase ([2]; 20.0 μg/mL): 2.27 pmol/min/mg | Cholesterol 7α-hydroxylase, percentage of 0.0 μg/mL ([2]; 20.0 μg/mL): 98.7% | Cholesterol 7α-hydroxylase ([2]; 40.0 μg/mL): 2.34 pmol/min/mg | Cholesterol 7α-hydroxylase, percentage of 0.0 μg/mL ([2]; 40.0 μg/mL): 101.3% | Cholesterol 7α-Hydroxylase, percentage of control [3]: 104.60% | Cholesterol 7α-hydroxylase [3]: 10.69 nmol/min/mg | HMG-CoA Reductase, percentage of control (HMG-CoA reductase [4]): 89.43% | Platelet Factor 4 (chickens [5]): 8.78 ng/mL | Platelet Factor 4, percentage of control (chickens [5]): 67.07% | Thromboxane B2 (chickens [5]): 21.63 pg/mL | Thromboxane B2, percentage of control (chickens [5]): 83.71% | Fatty Acid Synthase (Fatty Acid Synthase; 10.0 μg/mL): 15.2 nmol/min/mg | Fatty Acid Synthase, percentage of 0.0 μg/mL (Fatty Acid Synthase; 10.0 μg/mL): 88.4% | Fatty Acid Synthase (Fatty Acid Synthase; 20.0 μg/mL): 14.3 nmol/min/mg | Fatty Acid Synthase, percentage of 0.0 μg/mL (Fatty Acid Synthase; 20.0 μg/mL): 83.2% | Fatty Acid Synthase (Fatty Acid Synthase; 40.0 μg/mL): 12.4 nmol/min/mg | Fatty Acid Synthase, percentage of 0.0 μg/mL (Fatty Acid Synthase; 40.0 μg/mL): 72.1% | IgG antibody titers in serum (chickens [6]): 1.00 Log 2 | IgM antibody titers in serum (chickens [6]): 6.60 ± 1.24 Log 2 | Total Ab titers in serum (chickens [6]): 7.10 ± 1.51 Log 2 | maximum reduction in activity of HMG-CoA reductase (HMG-CoA reductase [7]): 37.7%
